# Marks after values point to notes of the source that are not given here.
# What was measured:
# [1] = CSF pharmacokinetics of Posiphen and its N1 and N8 metabolites (lumbar catheter sampling, LC-MS); format: in vivo, human; conditions: for mean levels averaged over 24 h of CSF sampling: after 21–23 days, early AD
# Text: (§1) For the confinement visit, subjects arrived in the early morning after an overnight fast. Physical and neurological examination, vital signs, and assessment of compliance were completed and blood was drawn for safety laboratory tests. An intravenous line and a second line for repeated blood draw were placed. To sample CSF, the intrathecal space was accessed using a Perifix 18G Touhy Epidural Needle (90 mm), and a Polyamide Epidural Catheter (20G Closed Tip) was inserted and fixed in place by an Anesthesiologist. Participants received the last day’s dosing of study drug or placebo. Initial blood and CSF samples were drawn, intravenous infusion of ^13C6-leucine was started and continued for 9 h, during which time subjects received a low leucine diet. Blood and CSF were sampled every 2 h for 36 h. After 36 h, intravenous lines and the CSF catheter were removed, vital signs were measured, physical exam performed, and blood and CSF were sent for routine laboratory studies. […] If postural headache was present, a blood patch was performed. Once stable, participants underwent a brief exam and vital sign check and were discharged. They received a phone call 24 h after discharge to check on their wellbeing.
# (§2) For biochemical analysis to derive data for SILK, ^13C6-leucine was analyzed in plasma and CSF by mass spectrometry, and Aβ peptides in CSF were analyzed by immunoprecipitation-mass spectrometry (IP-MS) as previously described, by C2N Diagnostics (St Louis, MO). CSF levels of sAPPα, sAPPβ, Aβ38, 40 and 42 were analyzed by the ADCS Biomarker Core using Mesoscale Discovery (MSD) electrochemiluminescent assays (Mesoscale Discovery, Rockville, MD). Levels of Posiphen and its N1 and N8 metabolites in plasma and CSF were measured by Charles River Laboratories (Montreal, CA) by high-performance liquid chromatographic mass spectrometry, with use of deuterated Posiphen (procured by Charles River Laboratories) as an internal standard.
# (§3) A prespecified Statistical Analysis Plan (SAP) was prepared and finalized before the database lock occurred. For safety and tolerability, frequencies of adverse events, serious adverse events and laboratory abnormalities between the participants across the three groups are compared, using Pearson’s χ [2] or ANOVA, as appropriate. Plasma concentration-time data are analyzed by non-compartmental methods using WinNonlin version 6.2.1 or greater. Calculations are based on the actual sampling times recorded during the study. For PK analysis, only the subjects receiving Posiphen are included.
# (§4) Noncompartmental pharmacokinetic parameters were estimated using Phoenix WinNonlin v8.3 (Certara, Princeton, NJ). Levels and parameters (Cmax, AUC) of posiphen, n-1 and n-8 metabolites were highly correlated in plasma and CSF. For the BID and TID doses the expected post dose plasma peaks appeared attenuated.
# [2] = Plasma pharmacokinetics of Posiphen and its N1 and N8 metabolites (LC-MS, non-compartmental); format: in vivo, human; conditions: for AUC0 − 24 in plasma, dose proportionality: between once daily and twice daily dosing; for mean levels averaged over 24 h of CSF sampling / AUC0 − 24 / Cmax / Tmax: plasma; for mean levels averaged over 24 h of CSF sampling: after 21–23 days, early AD
# Text: as §1, §2, §3, §4
# [3] = test system: Aβ; set-up: method as in PMID 24828079; conditions: mice and cognitively normal humans (aged 18–50), single dose of 60 mg; cited from earlier work
# [4] = 60 mg BID (n = 5), geometric mean (% geometric CV)
# [5] = 60 mg BID (n = 5), median (min-max)
# [6] = 60 mg daily (n = 4; N1: only one participant measurable), geometric mean (% geometric CV)
# [7] = 60 mg daily (n = 4; N1: only one participant measurable), median (min-max)
# [8] = 60 mg daily (n = 4), geometric mean (% geometric CV)
# [9] = 60 mg daily (n = 4), median (min-max)
compound,measurement,setting,value
CN1c2ccc(OC(=O)Nc3ccccc3)cc2[C@]2(C)CCN[C@H]12 [N1],mean levels averaged over 24 h of CSF sampling,[1]; 60 mg (n = 5),0.02 ± 0.04 ng/mL
same,mean levels averaged over 24 h of CSF sampling,[1]; 60 mg BID (n = 5),0.28 ± 0.30 ng/mL
same,AUC0 − 24,[1]; [4],8.75 (83.50) hr*ng/mL
same,Cmax,[1]; [4],0.90 (31.32) ng/mL
same,Tmax,[1]; [5],12 (4–20) hr
same,mean levels averaged over 24 h of CSF sampling,[1]; 60 mg TID (n = 1),0.00 ng/mL
same,AUC0 − 24,[1]; [6],1.33* hr*ng/mL
same,Cmax,[1]; [6],0.66* ng/mL
same,Tmax,[1]; [7],4* hr
same,"AUC0 − 24 in plasma, dose proportionality",[2],increased approximately proportionally
same,mean levels averaged over 24 h of CSF sampling,[2]; 60 mg BID (n = 5),3.02 ± 1.40 ng/mL
same,AUC0 − 24,[2]; [4],65.06 (58.61) hr*ng/mL
same,Cmax,[2]; [4],6.96 (32.01) ng/mL
same,Tmax,[2]; [5],12 (2–20) hr
same,AUC0 − 24,[2]; 60 mg TID (n = 1),60.18 ng·h/mL
same,Cmax,[2]; 60 mg TID (n = 1),5.48 ng/mL
same,Tmax,[2]; 60 mg TID (n = 1),2 h
same,mean levels averaged over 24 h of CSF sampling,[2]; 60 mg TID (n = 1),2.51 ng/mL
same,AUC0 − 24,[2]; [8],36.60 (19.24) hr*ng/mL
same,Cmax,[2]; [8],5.43 (21.98) ng/mL
same,Tmax,[2]; [9],2 (2–4) hr
same,mean levels averaged over 24 h of CSF sampling,[2]; 60 mg once daily (n = 5),1.29 ± 0.77 ng/mL
CN1CC[C@]2(C)c3cc(OC(=O)Nc4ccccc4)ccc3NC12 (stereo partly drawn) [N8],mean levels averaged over 24 h of CSF sampling,[1]; 60 mg (n = 5),0.35 ± 0.26 ng/mL
same,mean levels averaged over 24 h of CSF sampling,[1]; 60 mg BID (n = 5),0.77 ± 0.43 ng/mL
same,AUC0 − 24,[1]; [4],17.88 (58.47) hr*ng/mL
same,Cmax,[1]; [4],1.41 (39.33) ng/mL
same,Tmax,[1]; [5],12 (4–20) hr
same,AUC0 − 24,[1]; 60 mg TID (n = 1),6.26 ng·h/mL
same,Cmax,[1]; 60 mg TID (n = 1),0.62 ng/mL
same,Tmax,[1]; 60 mg TID (n = 1),12 h
same,mean levels averaged over 24 h of CSF sampling,[1]; 60 mg TID (n = 1),0.15 ng/mL
same,AUC0 − 24,[1]; [6],8.91 (47.91) hr*ng/mL
same,Cmax,[1]; [6],1.01 (14.14) ng/mL
same,Tmax,[1]; [7],4 (2–8) hr
same,"AUC0 − 24 in plasma, dose proportionality",[2],increased approximately proportionally
same,mean levels averaged over 24 h of CSF sampling,[2]; 60 mg BID (n = 5),5.04 ± 1.80 ng/mL
same,AUC0 − 24,[2]; [4],113.65 (44.01) hr*ng/mL
same,Cmax,[2]; [4],10.01 (27.79) ng/mL
same,Tmax,[2]; [5],12 (2–20) hr
same,AUC0 − 24,[2]; 60 mg TID (n = 1),80.40 ng·h/mL
same,Cmax,[2]; 60 mg TID (n = 1),5.41 ng/mL
same,Tmax,[2]; 60 mg TID (n = 1),2 h
same,mean levels averaged over 24 h of CSF sampling,[2]; 60 mg TID (n = 1),3.35 ng/mL
same,AUC0 − 24,[2]; [8],66.02 (20.83) hr*ng/mL
same,Cmax,[2]; [8],6.81 (25.10) ng/mL
same,Tmax,[2]; [9],3 (3–4) hr
same,mean levels averaged over 24 h of CSF sampling,[2]; 60 mg once daily (n = 5),2.25 ± 1.36 ng/mL
CN(C)CCCC1(c2ccc(F)cc2)OCc2cc(C#N)ccc21 (stereo not drawn) [citalopram],Aβ production (SILK),[3],decreased
